Common to all, as to assay: Bliss excess, mean over the matrix (fraction); higher = more synergy
Experiment [1] has as its system SU-DHL-10 (B-Cell Non-Hodgkin's Lymphoma). The gist of the method: (§1)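 Bliss excess equals the observed combination effect minus the expected value EA + EB − EA·EB, where EA and EB are the effects of each agent alone. Combination Emax is the second-highest inhibition within the matrix. Inhibition was scaled from CellTiter-Glo 2.0 luminescence, with 0 set by vehicle wells and 1 by blank wells, after 72 hours of two-drug dosing of cells plated in 1536-well plates.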

Experiment [2] deals with REH (B-Lymphoblastic Leukemia). The gist of the method:
as §1

Experiment [3] concerns PANC-03-27 (Pancreatic Carcinoma). The gist of the method: as §1
Experiment [4] concerns 23132-87 (Gastric Carcinoma). The gist of the method: as §1
The subject of experiment [5] is NCI-H2342 (Lung Adenocarcinoma). The gist of the method: as §1
Experiment [6] has as its system PC-3_[JPC-3] (Lung Adenocarcinoma). The gist of the method:
as §1

For 17 compounds, Bliss excess results are on record in the supplement of paper PMC11061612.

With `CN(C)CCCOc1ccc(-c2ccc3ncc4c(c3c2)n(C2CCOCC2)c(=O)n4C)cn1` [AZD0156] + C=CCn1c(=O)c2cnc(Nc3ccc(N4CCN(C)CC4)cc3)nc2n1-c1cccc(C(C)(C)O)n1 [AZD1775] (first compound max 1 µM, partner max 1 µM), the Bliss excess is -0.0088 in experiment [1]; -0.0158 in experiment [2]; -0.063 in experiment [3]; 0.0164 in experiment [4]; -0.0612 in experiment [5]; -0.0018 in experiment [6].

Consider `CN(C)CCCOc1ccc(-c2ccc3ncc4c(c3c2)n(C2CCOCC2)c(=O)n4C)cn1` [AZD0156] + CCN(CCO)CCCOc1ccc2c(Nc3cc(CC(=O)Nc4cccc(F)c4)[nH]n3)ncnc2c1 [AZD2811] (first compound max 1 µM, 7x7, partner max 1 µM), for which the Bliss excess is -0.0813 in experiment [1]; -0.0137 in experiment [2]; -0.0519 in experiment [3]; -0.025 in experiment [4]; -0.054 in experiment [5]; -0.0524 in experiment [6].

Regarding `CN(C)CCCOc1ccc(-c2ccc3ncc4c(c3c2)n(C2CCOCC2)c(=O)n4C)cn1` [AZD0156] + C[C@@H]1COCCN1C2=NC(=NC(=C2)C3(CC3)[S@](=N)(=O)C)C4=C5C=CNC5=NC=C4 [AZD6738] (first compound max 1 µM, 7x7, partner max 10 µM), the Bliss excess in experiment [1] was 0.0699; in experiment [2] it was -0.0277; in experiment [3] it was -0.0078; in experiment [4], 0.0549; in experiment [5], -0.0487; in experiment [6] it was -0.006.

In the case of `C=CCn1c(=O)c2cnc(Nc3ccc(N4CCN(C)CC4)cc3)nc2n1-c1cccc(C(C)(C)O)n1` [AZD1775] + C[C@@H]1COCCN1C2=NC(=NC(=C2)C3(CC3)[S@](=N)(=O)C)C4=C5C=CNC5=NC=C4 [AZD6738] (first compound max 1 µM, partner max 10 µM), the Bliss excess in experiment [1] was 0.0505; in experiment [2] it was 0.0406; in experiment [3] it was -0.0426; in experiment [4], 0.083; in experiment [5] it was -0.0687; in experiment [6] it was -0.0732.

For `C=CCn1c(=O)c2cnc(Nc3ccc(N4CCN(C)CC4)cc3)nc2n1-c1cccc(C(C)(C)O)n1` [AZD1775] + O=C(c1cc(Cc2n[nH]c(=O)c3ccccc23)ccc1F)N1CCN(C(=O)C2CC2)CC1 [Olaparib] (first compound max 1 µM, partner max 10 µM), the Bliss excess in experiment [1] was -0.0229; in experiment [2] it was -0.0474; in experiment [3], -0.032; in experiment [4] it was -0.0282; in experiment [5] it was -0.0372; in experiment [6], -0.0515.

Take `CCN(CCO)CCCOc1ccc2c(Nc3cc(CC(=O)Nc4cccc(F)c4)[nH]n3)ncnc2c1` [AZD2811] + C=CCn1c(=O)c2cnc(Nc3ccc(N4CCN(C)CC4)cc3)nc2n1-c1cccc(C(C)(C)O)n1 [AZD1775] (first compound max 1 µM, partner max 1 µM): the Bliss excess is -0.0481 in experiment [1]; 0.0449 in experiment [2]; 0.001 in experiment [3]; 0.0208 in experiment [4]; -0.0052 in experiment [5]; -0.0752 in experiment [6].

Take `CCN(CCO)CCCOc1ccc2c(Nc3cc(CC(=O)Nc4cccc(F)c4)[nH]n3)ncnc2c1` [AZD2811] + C[C@@H]1COCCN1C2=NC(=NC(=C2)C3(CC3)[S@](=N)(=O)C)C4=C5C=CNC5=NC=C4 [AZD6738] (first compound max 1 µM, 7x7, partner max 10 µM): the Bliss excess in experiment [1] is -0.0609; in experiment [2], -0.0518; in experiment [3], -0.123; in experiment [4] it was -0.0087; in experiment [5] it was -0.0706; in experiment [6], -0.0453.

Take `CCN(CCO)CCCOc1ccc2c(Nc3cc(CC(=O)Nc4cccc(F)c4)[nH]n3)ncnc2c1` [AZD2811] + O=C(c1cc(Cc2n[nH]c(=O)c3ccccc23)ccc1F)N1CCN(C(=O)C2CC2)CC1 [Olaparib] (first compound max 1 µM, 7x7, partner max 10 µM): the Bliss excess in experiment [1] was -0.187; in experiment [2], 0.0285; in experiment [3], -0.0161; in experiment [4], 0.0143; in experiment [5], -0.02; in experiment [6], -0.0067.

Take `CN(CCO)CC[C@H](CSc1ccccc1)Nc1ccc(S(=O)(=O)NC(=O)c2ccc(N3CCC([C@@H](O)c4ccccc4-c4ccc(Cl)cc4)CC3)cc2)cc1S(=O)(=O)C(F)(F)F` [AZD4320] + C1CN(CCC1(C(=O)N[C@@H](CCO)C2=CC=C(C=C2)Cl)N)C3=NC=NC4=C3C=CN4 [Capivasertib] (first compound max 1 µM, 7x7, partner max 3 µM): the Bliss excess in experiment [1] was 0.0129; in experiment [2] it was 0.0197; in experiment [3], -0.0481; in experiment [4], -0.0483; in experiment [5], -0.0259; in experiment [6] it was -0.0961.

Take `CN(CCO)CC[C@H](CSc1ccccc1)Nc1ccc(S(=O)(=O)NC(=O)c2ccc(N3CCC([C@@H](O)c4ccccc4-c4ccc(Cl)cc4)CC3)cc2)cc1S(=O)(=O)C(F)(F)F` [AZD4320] + C=CCn1c(=O)c2cnc(Nc3ccc(N4CCN(C)CC4)cc3)nc2n1-c1cccc(C(C)(C)O)n1 [AZD1775] (first compound max 1 µM, partner max 1 µM): the Bliss excess is 0.0069 in experiment [1]; 0.0738 in experiment [2]; 0.0079 in experiment [3]; 0.072 in experiment [4]; 0 in experiment [5]; -0.0114 in experiment [6].

For the compound `CN(CCO)CC[C@H](CSc1ccccc1)Nc1ccc(S(=O)(=O)NC(=O)c2ccc(N3CCC([C@@H](O)c4ccccc4-c4ccc(Cl)cc4)CC3)cc2)cc1S(=O)(=O)C(F)(F)F` [AZD4320] + CCN(CCO)CCCOc1ccc2c(Nc3cc(CC(=O)Nc4cccc(F)c4)[nH]n3)ncnc2c1 [AZD2811] (first compound max 1 µM, 7x7, partner max 1 µM), the Bliss excess in experiment [1] is -0.0949; in experiment [2], 0.175; in experiment [3] it was 0.0197; in experiment [4], -0.0339; in experiment [5], -0.036; in experiment [6], -0.0598.

On to `CN(CCO)CC[C@H](CSc1ccccc1)Nc1ccc(S(=O)(=O)NC(=O)c2ccc(N3CCC([C@@H](O)c4ccccc4-c4ccc(Cl)cc4)CC3)cc2)cc1S(=O)(=O)C(F)(F)F` [AZD4320] + CN(C)CCCOc1ccc(-c2ccc3ncc4c(c3c2)n(C2CCOCC2)c(=O)n4C)cn1 [AZD0156] (first compound max 1 µM, 7x7, partner max 1 µM), for which the Bliss excess in experiment [1] is -0.0158; in experiment [2] it was 0.0092; in experiment [3] it was -0.0459; in experiment [4], -0.0277; in experiment [5] it was -0.0214; in experiment [6] it was -0.0583.

Regarding `CN(CCO)CC[C@H](CSc1ccccc1)Nc1ccc(S(=O)(=O)NC(=O)c2ccc(N3CCC([C@@H](O)c4ccccc4-c4ccc(Cl)cc4)CC3)cc2)cc1S(=O)(=O)C(F)(F)F` [AZD4320] + C[C@@H]1COCCN1C2=NC(=NC(=C2)C3(CC3)[S@](=N)(=O)C)C4=C5C=CNC5=NC=C4 [AZD6738] (first compound max 1 µM, 7x7, partner max 10 µM), the Bliss excess was 0.0076 in experiment [1]; 0.0532 in experiment [2]; -0.0392 in experiment [3]; 0.0832 in experiment [4]; -0.0429 in experiment [5]; -0.0469 in experiment [6].

For `CN(CCO)CC[C@H](CSc1ccccc1)Nc1ccc(S(=O)(=O)NC(=O)c2ccc(N3CCC([C@@H](O)c4ccccc4-c4ccc(Cl)cc4)CC3)cc2)cc1S(=O)(=O)C(F)(F)F` [AZD4320] + Cn1cnc2c(F)c(Nc3ccc(Br)cc3Cl)c(C(=O)NOCCO)cc21 [Selumetinib] (first compound max 1 µM, 7x7, partner max 3 µM), the Bliss excess is 0.0912 in experiment [1]; -0.0369 in experiment [2]; 0.0406 in experiment [3]; 0.0543 in experiment [4]; 0.0339 in experiment [6].

Regarding `COc1nnc2ccc(N3CCC(c4ccc(OCCN5CCN(C)C(=O)[C@H]5C)cc4)CC3)nn12` [AZD5153] + CN(CC[C@H](CSC1=CC=CC=C1)NC2=C(C=C(C=C2)S(=O)(=O)NC(=O)C3=CC=C(C=C3)N4CCC(CC4)[C@H](C5=CC=CC=C5C6=CC=C(C=C6)Cl)O)S(=O)(=O)C(F)(F)F)CCO [AZD4320] (first compound max 1 µM, 7x7, partner max 1 µM), the Bliss excess in experiment [1] is -0.0269; in experiment [4], -0.0551.

With `CC(=O)c1c(C)c2cnc(Nc3ccc(N4CCNCC4)cn3)nc2n(C2CCCC2)c1=O` [Palbociclib] + CN(CC[C@H](CSC1=CC=CC=C1)NC2=C(C=C(C=C2)S(=O)(=O)NC(=O)C3=CC=C(C=C3)N4CCC(CC4)[C@H](C5=CC=CC=C5C6=CC=C(C=C6)Cl)O)S(=O)(=O)C(F)(F)F)CCO [AZD4320] (first compound max 10 µM, 7x7, partner max 1 µM), the results for the Bliss excess in experiment [1] and in experiment [4] were 0.0319 and -0.093, respectively.

In the case of `CCc1c2c(nc3ccc(O)cc13)-c1cc3c(c(=O)n1C2)COC(=O)[C@]3(O)CC` [SN-38] + O=C(c1cc(Cc2n[nH]c(=O)c3ccccc23)ccc1F)N1CCN(C(=O)C2CC2)CC1 [Olaparib] (first compound max 0.3 µM, 7x7, partner max 10 µM), the Bliss excess came to 0.0473 in experiment [2]; 0.0498 in experiment [3]; 0.0174 in experiment [4]; 0.0154 in experiment [5]; 0.113 in experiment [6].
